pIC50: −log10 of the molar value. Where two headings read alike, the source gives them in different places.
Columns and labels:
[1] = target: BACE (Homo sapiens, UniProt P56817); experiment: In vitro enzymatic BACE FRET assay; type: biochemical; settings: average IC50, enzyme assay; read-out: BACE 1 FRET assay
Procedure: In Vitro Enzymatic BACE FRET (Fluorescence Resonance Energy Transfer) Assay (Enzyme Assay Data in the Example Table I) The assay buffer used in this screen is 0.05 M acetate, pH 4.2, 10% DMSO final, 100 uM genapol (which is a nonionic detergent, below its Critical Micelle Concentration). The beta secretase enzyme (0.2 nM) is pre-incubated for one hour with inhibitors, typically in about 1 uL of DMSO according to a serial dilution, are added thereto. This assay is effectively started by the addition of FRET substrate (50 nM) and the combination is incubated for one hour. The FRET assay is terminated with by addition of Tris buffer, which raises the pH to neutrality, and the fluorescence is determined. The FRET substrate is a peptide with commercially available fluorophore and quencher, on opposite sides of the BACE cleavage site. Proteolytic cleavage of the FRET substrate releases quenching of fluorescence (excitation 488 nm and emission […]).

[2] = test system: Aβ40; experiment: In vitro BACE cell-based assay (Aβ40 sandwich ELISA, cells stably expressing APP)
Procedure: In Vitro BACE Cell-Based Assay […] Cells stably expressing Amyloid Precursor Protein (APP) were plated at a density of 40K cells/well in 96 well plates (Costar). The cells were cultivated for 24 hours at 37° C. and 5% CO2 in DMEM supplemented with 10% FBS. The test compounds were then added to cells in 10-point dose response concentrations with the starting concentration being either 100 μM or 10 μM. The compounds were diluted from stock solutions in DMSO and the final DMSO concentration of the test compounds on cells was 0.1%. […] The IC50 of the compound was calculated from the percent of control or percent inhibition of Aβ40 as a function of the concentration of the test compound. The sandwich ELISA to detect Aβ40 was performed in 96 well microtiter plates, which were pre-treated with goat anti-rabbit IgG (Pierce). […] The optimal concentration for the pAb40 antibody was 3 μg/ml in Superblock/TBS (Pierce) that was supplemented with 0.05% Tween 20 (Sigma). […] Cellular supernatants were incubated with the capture antibody for 3 h at 4° C., followed by 3 wash steps in TBS-tween (0.05%). The detecting antibody incubation was for 2 h at 4° C., again followed by the wash steps as described previously. The final readout of the ELISA is Time-Resolved Fluorescence (counts per minute) using Delfia reagents Streptavidin-Europium and Enhancement solutions (Perkin Elmer) and the Victor 2 multilabel counter (Perkin Elmer).

[3] = Homo sapiens, HEK293, average IC50, cell assay, HEK cells
[4] = Homo sapiens, HEK293, average IC50, read-out: HEK cell assay

BACE, sequence (P56817 46-501, species assumed): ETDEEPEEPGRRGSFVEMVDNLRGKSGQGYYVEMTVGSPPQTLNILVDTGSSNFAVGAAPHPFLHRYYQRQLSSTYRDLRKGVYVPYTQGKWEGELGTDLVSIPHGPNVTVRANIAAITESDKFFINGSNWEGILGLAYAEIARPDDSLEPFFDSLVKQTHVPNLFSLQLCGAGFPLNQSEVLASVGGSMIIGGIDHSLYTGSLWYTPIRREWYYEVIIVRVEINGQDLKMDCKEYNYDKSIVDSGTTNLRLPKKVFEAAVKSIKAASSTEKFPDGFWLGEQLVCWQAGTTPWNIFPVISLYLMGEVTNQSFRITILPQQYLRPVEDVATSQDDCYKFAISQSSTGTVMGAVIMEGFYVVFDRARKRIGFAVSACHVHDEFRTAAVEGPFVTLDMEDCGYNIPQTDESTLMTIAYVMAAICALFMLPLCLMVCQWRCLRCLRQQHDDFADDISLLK

SMILES	pIC50 [1]	pIC50 [2, 3]	pIC50 [2, 4]	pIC50 ([2]; average IC50, read-out: HEK cell assay)
COc1ccc2c(c1)C1(CCSC(N)=N1)c1cc(-c3cncnc3)ccc1O2 (stereo not shown) [compound 137]	5.95	5.94	–	–
NC1=N[C@]2(CCO1)c1cc(-c3cccnc3F)ccc1Oc1cnc(-c3cncc(F)c3)cc12 [compound 152]	6.62	6.97	–	–
NC1=N[C@]2(CCO1)c1cc(-c3cccnc3)ccc1Oc1c(F)cc(C3=CCOCC3)cc12 [compound 157]	6.11	7.11	–	–
CC(C)(F)COc1cc(F)c2c(c1)[C@@]1(CCOC(N)=N1)c1cc(-c3cccnc3)ccc1O2 [compound 158]	6.03	6.41	–	–
NC1=N[C@]2(CCO1)c1cc(-c3cccnc3)ccc1Oc1c(F)cc(C3=CCCOC3)cc12 [compound 159]	6.21	7.15	–	–
CC1(COc2cc(F)c3c(c2)[C@@]2(CCOC(N)=N2)c2cc(-c4cccnc4)ccc2O3)COC1 [compound 161]	5.56	6.48	–	–
NC1=N[C@]2(CCO1)c1cc(-c3cccnc3F)ccc1Oc1c(F)cc(N3CCC(F)(F)CC3)cc12 [compound 162]	6.02	–	5.52	–
NC1=N[C@]2(CCO1)c1cc(-c3cccnc3F)ccc1Oc1c(F)cc(-c3ccncc3)cc12 [compound 165]	6.26	–	6.61	–
NC1=N[C@]2(CCO1)c1cc(-c3cccnc3F)ccc1Oc1c(F)cc(-c3cccnc3)cc12 [compound 167]	6.83	–	6.96	–
NC1=N[C@]2(CCO1)c1cc(-c3cccnc3F)ccc1Oc1c(F)cc(C3=CCOCC3)cc12 [compound 169]	5.51	–	5.47	–
CC1(COc2cc(F)c3c(c2)[C@@]2(CCOC(N)=N2)c2cc(-c4cccnc4F)ccc2O3)COC1 [compound 171]	6.28	–	6.61	–
NC1=N[C@]2(CCO1)c1cc(-c3cccnc3F)ccc1Oc1c(F)cc(C3=CCCOC3)cc12 [compound 172]	5.92	–	5.97	–
NC1=N[C@]2(CCO1)c1cc(-c3cccnc3F)ccc1Oc1c(F)cc(N3CC[C@@H](F)C3)cc12 [compound 177]	6.05	–	5.60	–
NC1=N[C@]2(CCO1)c1cc(-c3cccnc3F)ccc1Oc1c(F)cc(N3CCOCC3)cc12 [compound 179]	5.29	–	5.55	–
CC(C)(F)COc1cc(F)c2c(c1)[C@@]1(CCOC(N)=N1)c1cc(-c3cccnc3F)ccc1O2 [compound 181]	5.86	–	5.94	–
NC1=N[C@]2(CCS1)c1cc(-c3cccnc3F)ccc1Oc1cnc(-c3ccnc(F)c3)cc12 [compound 189]	5.62	–	5.48	–
NC1=N[C@]2(CCS1)c1cc(-c3cccnc3F)ccc1Oc1c(F)cc(C3=CCCOC3)cc12 [compound 190]	6.34	–	6.36	–
NC1=N[C@]2(CCS1)c1cc(-c3cccnc3F)ccc1Oc1cnc(Cl)cc12 [compound 192]	5.48	–	5.25	–
NC1=N[C@]2(CCS1)c1cc(-c3cccnc3F)ccc1Oc1cnc(C3=CCOCC3)cc12 [compound 194]	6.32	–	6.03	–
NC1=N[C@]2(CCS1)c1cc(-c3cccnc3F)ccc1Oc1cnc(C3=CCCOC3)cc12 [compound 195]	6.04	–	5.71	–
NC1=N[C@]2(CCS1)c1cc(-c3cccnc3F)ccc1Oc1c(F)cc(C3=CCOCC3)cc12 [compound 196]	5.60	–	7.08	–
CC1(COc2cc(F)c3c(c2)[C@@]2(CCSC(N)=N2)c2cc(-c4cccnc4F)ccc2O3)COC1 [compound 198]	6.25	–	6.20	–

Stronger by pIC50 [1], values ahead:

pIC50 [1]	pIC50 [2, 3]	pIC50 [2, 4]	pIC50 ([2]; average IC50, read-out: HEK cell assay)	SMILES
6.88	6.88	–	–	NC1=N[C@]2(CCO1)c1cc(-c3cccnc3F)ccc1Oc1cnc(-c3cccnc3)cc12 [compound 147]
6.99	6.23	–	–	CC(C)(C)COc1ccc2c(c1)[C@]1(COCC(N)=N1)c1cc(Br)ccc1O2 [compound 135, (3R)-2′-bromo-7′-(2,2-dimethylpropoxy)-6H-spiro[1,4-oxazine-3,9′-xanthen]-5-amine]
7.42	–	7.03	–	COc1cc(F)c2c(c1)[C@]1(CCOC(N)=N1)c1cc(-c3cccnc3F)ccc1O2 [compound 175, (4S)-4′-fluoro-7′-(2-fluoro-3-pyridinyl)-2′-methoxy-5,6-dihydrospiro[1,3-oxazine-4,9′-xanthen]-2-amine]
7.52	–	6.80	–	COc1cc(F)c2c(c1)[C@]1(CCSC(N)=N1)c1cc(-c3cccnc3F)ccc1O2 [compound 187]
7.76	6.96	–	–	NC1=N[C@@]2(COC1)c1cc(Br)ccc1Oc1c2cc(N2CCC(F)(F)CC2)nc1F [compound 128]
7.88	7.45	–	–	NC1=N[C@@]2(CCO1)c1cc(-c3cccnc3F)ccc1Oc1cnc(C3CCOCC3)cc12 [compound 144]
7.89	7.99	–	–	NC1=NC2(CCO1)c1cc(-c3cccnc3)ccc1Oc1cnc(-c3cccnc3)cc12 (stereo not shown) [compound 150, 3,7-di-3-pyridinyl-5′,6′-dihydrospiro[chromeno[2,3-c]pyridine-5,4′-[1,3]oxazin]-2′-amine]
7.89	8.16	–	–	CC(C)(C)C#Cc1cc2c(cn1)Oc1ccc(-c3cncc(F)c3)cc1[C@@]21CCOC(N)=N1 [compound 139]
7.97	8.47	–	–	NC1=N[C@@]2(CCO1)c1cc(-c3cncc(F)c3)ccc1Oc1cnc(-c3cccnc3)cc12 [compound 140]
8.02	7.65	–	–	NC1=N[C@@]2(CCO1)c1cc(-c3cccnc3F)ccc1Oc1cnc(-c3cncc(Cl)c3)cc12 [compound 141]
8.14	8.47	–	–	NC1=NC2(CCO1)c1cc(-c3cccnc3)ccc1Oc1cnc(C3=CCOCC3)cc12 (stereo not shown) [compound 151]
8.15	–	–	7.81	NC1=N[C@]2(CCO1)c1cc(-c3cccnc3F)ccc1Oc1c(F)cc(-c3ccnc(F)c3)cc12 [compound 183]
8.17	8.29	–	–	COc1cc2c(cn1)Oc1ccc(-c3cccnc3)cc1[C@@]21COCC(N)=N1 [compound 124]
8.20	8.23	–	–	CC1(COc2cc(F)c3c(c2)[C@]2(CCOC(N)=N2)c2cc(-c4cccnc4)ccc2O3)COC1 [compound 160]
8.21	8.38	–	–	NC1=N[C@@]2(CCO1)c1cc(-c3cncc(F)c3)ccc1Oc1cnc(-c3cncc(F)c3)cc12 [compound 142]
8.24	8.43	–	–	NC1=N[C@@]2(CCO1)c1cc(-c3cncc(F)c3)ccc1Oc1cnc(C3=CCOCC3)cc12 [compound 143]
8.34	8.39	–	–	NC1=N[C@@]2(CCO1)c1cc(-c3cccnc3F)ccc1Oc1cnc(-c3cccnc3)cc12 [compound 148]
8.48	–	8.33	–	NC1=N[C@@]2(CCS1)c1cc(-c3cccnc3F)ccc1Oc1cnc(C3=CCOCC3)cc12 [compound 193]
8.59	–	7.95	–	NC1=N[C@@]2(CCS1)c1cc(-c3cccnc3F)ccc1Oc1cnc(-c3ccnc(F)c3)cc12 [compound 188]
8.60	–	8.32	–	CC1(COc2cc(F)c3c(c2)[C@]2(CCSC(N)=N2)c2cc(-c4cccnc4F)ccc2O3)COC1 [compound 197]
8.64	–	8.49	–	CC1(COc2cc(F)c3c(c2)[C@]2(CCOC(N)=N2)c2cc(-c4cccnc4F)ccc2O3)COC1 [compound 180]
8.66	8.48	–	–	COc1cc2c(cn1)Oc1ccc(-c3cccnc3F)cc1[C@@]21COCC(N)=N1 [compound 123]
8.66	7.91	–	–	COc1cc2c(cn1)Oc1ccc(-c3cc(F)ccc3Cl)cc1[C@@]21COCC(N)=N1 [compound 125]
9.15	7.91	–	–	NC1=N[C@]2(COC1)c1cc(C3=CCCOC3)ccc1Oc1ccc(-c3cccnc3F)cc12 [compound 130]
9.15	8.60	–	–	CC#Cc1cncc(-c2ccc3c(c2)[C@@]2(COCC(N)=N2)c2cc(C4=CCOCC4)cc(F)c2O3)c1 [compound 131]
9.30	9.70	–	–	NC1=N[C@@]2(COC1)c1cc(-c3cncc(F)c3)ccc1Oc1cnc(C3=CCCOC3)cc12 [compound 121]
9.52	8.85	–	–	CC(C)(C#N)COc1cc2c(cn1)Oc1ccc(-c3cc(Cl)ccc3F)cc1[C@@]21COCC(N)=N1 [compound 127]
9.52	9.40	–	–	NC1=N[C@@]2(COC1)c1cc(-c3cncnc3)ccc1Oc1c(F)cc(C3=CCCOC3)cc12 [compound 133]

From patent US9012446B2, “Amino-oxazines and amino-dihydrothiazine compounds as beta-secretase modulators and methods of use” (Amgen Inc., priority 2010, dated 2015)
